# Article PMC10746543, “Design principles for cyclin K molecular glue degraders” (Nature Chemical Biology, 2023)
# Where “and” joins values, the source holds several entries; their conditions need not be identical. Identical values can stand only once. Like-named read-outs stand apart in the source and are kept apart here.
# Experiments:
# CDK12–cyclin K and DDB1 = biological target: T1, CDK12–cyclin K and DDB1 (Homo sapiens, UniProt Q16531+Q9NYV4, K965R); test: TR-FRET ternary complex formation assay (compound titration); format: binding; details: for TR-FRET signal at compound concentration: replicate titrations
# T1 construct: His6–CDK12 (a.a. 713–1,052); full-length or beta-propeller B domain deletion (ΔBPB: a.a. 396–705 deleted) constructs of His6–DDB1ΔBPB, StrepII–Avi–DDB1, or His6–Spy–DDB1; made in house; host or cells: Trichoplusia ni High Five insect cells (baculovirus)
# T1 sequence (Q9NYV4 713-1052 K965R): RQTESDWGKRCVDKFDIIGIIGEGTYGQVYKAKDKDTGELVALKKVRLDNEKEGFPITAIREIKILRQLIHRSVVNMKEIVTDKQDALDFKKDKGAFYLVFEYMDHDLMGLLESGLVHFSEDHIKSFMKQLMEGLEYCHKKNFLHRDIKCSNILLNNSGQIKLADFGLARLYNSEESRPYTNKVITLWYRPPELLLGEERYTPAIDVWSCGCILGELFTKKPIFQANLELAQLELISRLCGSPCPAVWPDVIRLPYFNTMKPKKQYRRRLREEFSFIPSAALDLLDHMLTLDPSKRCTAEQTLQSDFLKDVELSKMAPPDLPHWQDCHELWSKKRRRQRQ
# T1 sequence (O75909 1-267 partner): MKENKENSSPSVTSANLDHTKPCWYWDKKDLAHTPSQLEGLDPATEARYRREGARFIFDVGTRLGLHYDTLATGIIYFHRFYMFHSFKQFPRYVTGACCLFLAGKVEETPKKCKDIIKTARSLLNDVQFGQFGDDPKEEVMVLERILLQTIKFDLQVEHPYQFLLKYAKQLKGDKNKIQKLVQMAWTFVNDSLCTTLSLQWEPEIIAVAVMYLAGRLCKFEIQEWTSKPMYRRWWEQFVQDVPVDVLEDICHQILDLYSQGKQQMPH
# T1 sequence (Q16531 whole entry): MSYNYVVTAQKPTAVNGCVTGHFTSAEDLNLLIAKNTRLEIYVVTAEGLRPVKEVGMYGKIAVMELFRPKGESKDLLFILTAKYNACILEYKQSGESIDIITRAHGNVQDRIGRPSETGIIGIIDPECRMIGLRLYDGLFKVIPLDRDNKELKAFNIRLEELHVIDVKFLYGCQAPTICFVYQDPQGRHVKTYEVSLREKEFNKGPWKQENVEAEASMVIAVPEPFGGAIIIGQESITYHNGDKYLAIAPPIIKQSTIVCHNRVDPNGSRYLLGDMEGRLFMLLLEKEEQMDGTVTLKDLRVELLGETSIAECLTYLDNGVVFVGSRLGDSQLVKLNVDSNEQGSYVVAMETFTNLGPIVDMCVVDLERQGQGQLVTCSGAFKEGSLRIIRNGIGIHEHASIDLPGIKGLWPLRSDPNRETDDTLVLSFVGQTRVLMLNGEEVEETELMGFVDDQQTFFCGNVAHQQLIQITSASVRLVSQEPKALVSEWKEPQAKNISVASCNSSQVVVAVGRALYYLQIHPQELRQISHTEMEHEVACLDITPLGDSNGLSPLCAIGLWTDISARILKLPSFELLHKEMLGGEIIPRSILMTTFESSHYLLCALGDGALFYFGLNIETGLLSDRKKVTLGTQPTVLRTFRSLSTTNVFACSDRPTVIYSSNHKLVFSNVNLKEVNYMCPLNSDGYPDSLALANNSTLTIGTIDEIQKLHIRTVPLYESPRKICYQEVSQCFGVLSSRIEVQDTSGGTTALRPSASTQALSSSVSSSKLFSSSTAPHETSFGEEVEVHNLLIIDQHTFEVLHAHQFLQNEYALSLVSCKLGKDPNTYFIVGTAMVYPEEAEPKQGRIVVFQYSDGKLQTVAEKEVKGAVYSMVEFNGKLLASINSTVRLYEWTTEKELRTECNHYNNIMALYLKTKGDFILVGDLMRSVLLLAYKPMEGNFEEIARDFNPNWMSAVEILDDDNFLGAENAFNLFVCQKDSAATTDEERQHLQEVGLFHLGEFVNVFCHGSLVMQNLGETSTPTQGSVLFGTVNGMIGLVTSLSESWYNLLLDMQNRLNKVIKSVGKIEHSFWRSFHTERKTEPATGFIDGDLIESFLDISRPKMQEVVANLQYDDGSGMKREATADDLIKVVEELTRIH
# Source text: A 70 μs delay was employed to reduce background fluorescence. The TR-FRET signal was obtained through calculating the ratio of 520 nm to 490 nm fluorescence, and Prism 9 (GraphPad) was used for further data analysis.
# HEK293T cells = test: Drug sensitivity assay (CellTiter-Glo viability) with or without MLN4924 pretreatment; format: cell-based, human; details: Supplementary Table 2; for EC50: Homo sapiens, HEK-293T, HEK293T viability, 72 h, compound alone, read-out: Cellular assays EC50; for Toxicity rescue: MLN4924-mediated cytotoxicity rescue, 10 µM used where n.d.
# Method: HEK293T–Cas9 cells were resuspended at 0.15 × 10^6 ml^−1 treated with DMSO or 100 nM MLN4924 and plated on 384-well plates. After 2 h, the indicated drugs were dispensed with a D300 digital dispenser (Tecan). After 3 days of drug exposure, cell viability was assessed using the CellTiter-Glo luminescent assay (Promega, G7572) on an CLARIOstar Plus, MARS 3.4 (BMG LabTech). Cell viabilities were calculated relative to DMSO controls.
# [1] = Supplementary Table 2, read-out: TR-FRET EC50 TR-FRET
# [2] = compound concentration 79.2001 nM
# [3] = compound concentration 158.4 nM
# [4] = compound concentration 309.6 nM
# [5] = compound concentration 626.401 nM
# [6] = compound concentration 1252.8 nM
# [7] = compound concentration 9936.01 nM
# [8] = compound concentration 20016 nM
# [9] = in vitro complex formation, 50 nM CDK12–cyclin K, 100 nM DDB1, text and figures, read-out: TR-FRET EC50
smiles,measurement,setting,value
CC[C@H](CO)Nc1nc(NCCCCn2c(=O)oc3ccccc32)c2ncn(C(C)C)c2n1 [DS46],EC50,CDK12–cyclin K and DDB1; [1],627 nM
same,TR-FRET signal at compound concentration,CDK12–cyclin K and DDB1; compound concentration 4.68 nM,0.1284 and 0.1304
same,TR-FRET signal at compound concentration,CDK12–cyclin K and DDB1; compound concentration 21.6 nM,0.1505 and 0.151
same,TR-FRET signal at compound concentration,CDK12–cyclin K and DDB1; compound concentration 36 nM,0.1775 and 0.1803
same,TR-FRET signal at compound concentration,CDK12–cyclin K and DDB1; [2],0.2245 and 0.2264
same,TR-FRET signal at compound concentration,CDK12–cyclin K and DDB1; [3],0.2818 and 0.3032
same,TR-FRET signal at compound concentration,CDK12–cyclin K and DDB1; [4],0.3899 and 0.4001
same,TR-FRET signal at compound concentration,CDK12–cyclin K and DDB1; [5],0.5107 and 0.5141
same,TR-FRET signal at compound concentration,CDK12–cyclin K and DDB1; [6],0.639 and 0.6296
same,TR-FRET signal at compound concentration,CDK12–cyclin K and DDB1; compound concentration 2448 nM,0.7343 and 0.7319
same,TR-FRET signal at compound concentration,CDK12–cyclin K and DDB1; [7],0.8755 and 0.8533
same,TR-FRET signal at compound concentration,CDK12–cyclin K and DDB1; [8],0.861 and 0.8686
same,EC50,HEK293T cells,> 10000 nM
same,Toxicity rescue,HEK293T cells,0%
Cn1cc(-n2cnc3c(NCc4nc5ccccc5[nH]4)nc(N4CCOCC4)nc32)cn1 [DS55],EC50,CDK12–cyclin K and DDB1; [1],35.6 nM
same,TR-FRET signal,CDK12–cyclin K and DDB1; compound concentration 0.468 nM,0.2624 and 0.2805
same,TR-FRET signal at compound concentration 0.468 nM,"CDK12–cyclin K and DDB1; compound concentration 0.468 nM, raw replicate titration data",0.2624 and 0.2805
same,TR-FRET signal,CDK12–cyclin K and DDB1; compound concentration 2.16 nM,0.2884 and 0.3105
same,TR-FRET signal at compound concentration 2.16 nM,"CDK12–cyclin K and DDB1; compound concentration 2.16 nM, raw replicate titration data",0.2884 and 0.3105
same,TR-FRET signal,CDK12–cyclin K and DDB1; compound concentration 3.6 nM,0.3317 and 0.3563
same,TR-FRET signal at compound concentration 3.6 nM,"CDK12–cyclin K and DDB1; compound concentration 3.6 nM, raw replicate titration data",0.3317 and 0.3563
same,TR-FRET signal,CDK12–cyclin K and DDB1; compound concentration 7.92001 nM,0.4199 and 0.4425
same,TR-FRET signal at compound concentration 7.92001 nM,"CDK12–cyclin K and DDB1; compound concentration 7.92001 nM, raw replicate titration data",0.4199 and 0.4425
same,TR-FRET signal,CDK12–cyclin K and DDB1; compound concentration 15.84 nM,0.5444 and 0.5762
same,TR-FRET signal at compound concentration 15.84 nM,"CDK12–cyclin K and DDB1; compound concentration 15.84 nM, raw replicate titration data",0.5444 and 0.5762
same,TR-FRET signal,CDK12–cyclin K and DDB1; compound concentration 30.96 nM,0.7696 and 0.7908
same,TR-FRET signal at compound concentration 30.96 nM,"CDK12–cyclin K and DDB1; compound concentration 30.96 nM, raw replicate titration data",0.7696 and 0.7908
same,TR-FRET signal,CDK12–cyclin K and DDB1; compound concentration 62.6401 nM,1.019 and 1.061
same,TR-FRET signal at compound concentration 62.6401 nM,"CDK12–cyclin K and DDB1; compound concentration 62.6401 nM, raw replicate titration data",1.019 and 1.061
same,TR-FRET signal,CDK12–cyclin K and DDB1; compound concentration 125.28 nM,1.199 and 1.278
same,TR-FRET signal at compound concentration 125.28 nM,"CDK12–cyclin K and DDB1; compound concentration 125.28 nM, raw replicate titration data",1.199 and 1.278
same,TR-FRET signal,CDK12–cyclin K and DDB1; compound concentration 244.8 nM,1.2725 and 1.386
same,TR-FRET signal at compound concentration 244.8 nM,"CDK12–cyclin K and DDB1; compound concentration 244.8 nM, raw replicate titration data",1.2725 and 1.386
same,TR-FRET signal,CDK12–cyclin K and DDB1; compound concentration 993.601 nM,1.352 and 1.424
same,TR-FRET signal at compound concentration 993.601 nM,"CDK12–cyclin K and DDB1; compound concentration 993.601 nM, raw replicate titration data",1.352 and 1.424
same,TR-FRET signal,CDK12–cyclin K and DDB1; compound concentration 2001.6 nM,1.301 and 1.386
same,TR-FRET signal at compound concentration 2001.6 nM,"CDK12–cyclin K and DDB1; compound concentration 2001.6 nM, raw replicate titration data",1.301 and 1.386
same,EC50,CDK12–cyclin K and DDB1; [9],36 ± 2 nM
same,EC50,HEK293T cells,1030 nM
same,Toxicity rescue,HEK293T cells,336%
Cn1cc(-n2cnc3c(NCc4cc5ccccc5[nH]4)nc(N4CCOCC4)nc32)cn1 [DS56],TR-FRET signal at compound concentration 4.68 nM,"CDK12–cyclin K and DDB1; compound concentration 4.68 nM, raw replicate titration data",0.1981 and 0.2221
same,TR-FRET signal at compound concentration 21.6 nM,"CDK12–cyclin K and DDB1; compound concentration 21.6 nM, raw replicate titration data",0.2108 and 0.2312
same,TR-FRET signal at compound concentration 36 nM,"CDK12–cyclin K and DDB1; compound concentration 36 nM, raw replicate titration data",0.221 and 0.2484
same,TR-FRET signal at compound concentration 79.2001 nM,"CDK12–cyclin K and DDB1; compound concentration 79.2001 nM, raw replicate titration data",0.2309 and 0.2483
same,TR-FRET signal at compound concentration 158.4 nM,"CDK12–cyclin K and DDB1; compound concentration 158.4 nM, raw replicate titration data",0.2488 and 0.2752
same,TR-FRET signal at compound concentration 309.6 nM,"CDK12–cyclin K and DDB1; compound concentration 309.6 nM, raw replicate titration data",0.2871 and 0.3205
same,TR-FRET signal at compound concentration 626.401 nM,"CDK12–cyclin K and DDB1; compound concentration 626.401 nM, raw replicate titration data",0.3642 and 0.3972
same,TR-FRET signal at compound concentration 1252.8 nM,"CDK12–cyclin K and DDB1; compound concentration 1252.8 nM, raw replicate titration data",0.4852 and 0.5291
same,TR-FRET signal at compound concentration 2448 nM,"CDK12–cyclin K and DDB1; compound concentration 2448 nM, raw replicate titration data",0.6251 and 0.6926
same,TR-FRET signal at compound concentration 9936.01 nM,"CDK12–cyclin K and DDB1; compound concentration 9936.01 nM, raw replicate titration data",0.9055 and 1.021
same,TR-FRET signal at compound concentration 20016 nM,"CDK12–cyclin K and DDB1; compound concentration 20016 nM, raw replicate titration data",0.9207 and 1.03
same,EC50,CDK12–cyclin K and DDB1; [9],2110 ± 252 nM
Cn1cc(-n2cnc3c(NCc4ccc(OCCO)cc4)nc(N4CCOCC4)nc32)cn1 [DS62],EC50,CDK12–cyclin K and DDB1; [1],~2200 nM
same,TR-FRET signal,CDK12–cyclin K and DDB1; compound concentration 4.68 nM,0.2045 and 0.2293
same,TR-FRET signal,CDK12–cyclin K and DDB1; compound concentration 21.6 nM,0.2001 and 0.225
same,TR-FRET signal,CDK12–cyclin K and DDB1; compound concentration 36 nM,0.2055 and 0.2312
same,TR-FRET signal,CDK12–cyclin K and DDB1; [2],0.2131 and 0.2461
same,TR-FRET signal,CDK12–cyclin K and DDB1; [3],0.2289 and 0.2537
same,TR-FRET signal,CDK12–cyclin K and DDB1; [4],0.2472 and 0.27
same,TR-FRET signal,CDK12–cyclin K and DDB1; [5],0.294 and 0.3255
same,TR-FRET signal,CDK12–cyclin K and DDB1; [6],0.3562 and 0.4045
same,TR-FRET signal,CDK12–cyclin K and DDB1; compound concentration 2448 nM,0.4507 and 0.5009
same,TR-FRET signal,CDK12–cyclin K and DDB1; [7],0.6036 and 0.6674
same,TR-FRET signal,CDK12–cyclin K and DDB1; [8],0.6334 and 0.6963
same,"DDB1–CDK12 complex formation, result in words",CDK12–cyclin K and DDB1; in vitro TR-FRET,incompatible with the DDB1–CDK12 interface
same,EC50,CDK12–cyclin K and DDB1; [9],2200 ± 326 nM
same,EC50,HEK293T cells,> 10000 nM
same,Toxicity rescue,HEK293T cells,0%
CC[C@H](CO)Nc1nc(NCc2ccccc2)c2ncn(C(C)C)c2n1 [Roscovitine],Toxicity rescue,HEK293T cells,0%
